Earlier results in patent EP4759315A1, “DRUG PREPARED FROM ORGANIC GERMANIUM COMPOUND AND GLUCOSAMINE COMPOUND, AND USE THEREOF” (Eion International Ltd., priority 2023, dated 2025).

Key:
[1] = in vivo

O=C(O)C[CH2][Ge](=[O])[O][Ge](=[O])[CH2]CC(=O)O [Ge-132, bis(carboxyethyl)germanium sesquioxide]
pH of the solution (at the concentration of 1.28 g/100 ml in water): 3.06-3.12 | solubility in water (water): 1.28 g/100 ml | No-Observable-Adverse-Effect Level (NOAEL) [1]: 2000 mg/kg body weight/day
